Results reported in patent US10973803B2, “Sodium salt of N-((1,2,3,5,6,7-hexahydro-s-indacen-4-yl)carbamoyl)-1-isopropyl-1H-pyrazole-3-sulfonamide” (INFLAZOME LIMITED, priority 2018, dated 2021).

Assays:
[1] = thermodynamic aqueous solubility measured in water
[2] = stability in aqueous media; type: physicochemical; details: 0.2 mg/ml; for stability in aqueous media (in words): 50° C. and room temperature; for Stability in aqueous media (24 hrs at 50° C.) / Stability in aqueous media (24 hrs at room temperature): sodium salt in water, free acid in 1:1 water and acetonitrile; for Stability in aqueous media (24 hrs at 50° C.): amber vial
Description: To measure the stability in aqueous media, the sodium salt was dissolved in water at a concentration of 0.2 mg/ml. Due to the very poor aqueous solubility of the free acid, the free acid was dissolved in a 1:1 mixture of water and acetonitrile at the same concentration of 0.2 mg/ml. Samples were kept at 50° C. in an amber vial and at room temperature in an amber vial as well as a clear vial.

[3] = intrinsic dissolution rate (US Pharmacopoeia, chapter 1087); type: physicochemical
Description: The intrinsic dissolution rate was measured by the procedure set out in the US Pharmacopoeia, chapter 1087.

[4] = XRPD after storage at elevated temperature and humidity (stability of polymorphic form); type: physicochemical
Description: X-Ray Powder Diffraction (XRPD), Ion Chromatography (IC), Karl Fischer titration (KF), Thermogravimetric Analysis (TGA), Differential Scanning Calorimetry (DSC) and high performance liquid chromatography (HPLC) techniques referred to in the examples were carried out under the following conditions: XRPD diffractograms were collected on a Bruker D8 diffractometer using CuKα radiation (40 kV, 40 mA) and a θ-2θ goniometer fitted with a Ge monochromator. The incident beam passed through a 2.0 mm divergence slit followed by a 0.2 mm antiscatter slit and knife edge. The diffracted beam passed through an 8.0 mm receiving slit with 2.5° Soller slits followed by the Lynxeye Detector. The software used for data collection and analysis was Diffrac Plus XRD Commander and Diffrac Plus EVA respectively. Samples were run under ambient conditions as flat plate specimens using powder as received. The sample was prepared on a polished, zero-background (510) silicon wafer by gently pressing onto the flat surface or packed into a cut cavity.
The XRPD spectra shown in FIG. 1 were obtained directly after preparation of the product, after storage for 1 week and for 5 weeks at 40° C. and 75% relative humidity, and after storage for 1 week and for 5 weeks at 25° C. and 97% relative humidity.
The XRPD spectra shown in FIG. 3 were obtained directly after preparation of the product, after storage for 1 week at 40° C. and 75% relative humidity, and after storage for 1 week at 25° C. and 97% relative humidity.

[5] = physchem; details: water, thermodynamic from solid

Compound: CC(C)n1ccc(S(=O)(=O)NC(=O)Nc2c3c(cc4c2CCC4)CCC3)n1 [Comparative Example 1, N-((1,2,3,5,6,7-hexahydro-s-indacen-4-yl)carbamoyl)-1-isopropyl-1H-pyrazole-3-sulfonamide free acid, reference compound]
- Aqueous Solubility ([1]; thermodynamic, in water): <0.5 mg/mL
- solubility ([1]; water, thermodynamic from solid): < 0.5 mg/mL
- stability in aqueous media (in words) [2]: unstable
- Stability in aqueous media (24 hrs at 50° C.) [2]: 94% degradation
- Stability in aqueous media (24 hrs at room temperature) [2]: 37% degradation
- Intrinsic dissolution rate (at pH 2) [3]: 4 μg/min · mm^2

Compound: CC(C)n1ccc(S(=O)(=O)NC(=O)Nc2c3c(cc4c2CCC4)CCC3)n1.O.[Na] [Example 2, N-((1,2,3,5,6,7-hexahydro-s-indacen-4-yl)carbamoyl)-1-isopropyl-1H-pyrazole-3-sulfonamide monosodium monohydrate]
- resulting pH of aqueous solution ([1]; in water at solubility of 81 mg/ml): 9.7
- stability in aqueous media (in words) [2]: stable in aqueous media
- Stability in aqueous media (24 hrs at 50° C.) [2]: 2.7% degradation
- Stability in aqueous media (24 hrs at room temperature) [2]: No significant
- stability with respect to conversion into other polymorphic forms (XRPD) ([4]; storage 1 week and 5 weeks at 40° C. and 75% relative humidity, and 1 week and 5 weeks at 25° C. and 97% relative humidity): shows stability with respect to conversion into other polymorphic forms
- Intrinsic dissolution rate (at pH 2) [3]: 10 μg/min · mm^2
- intrinsic dissolution rate relative to that of the free acid ([3]; sodium salt versus free acid): at least twice as high
- solubility [5]: 81 mg/mL

Compound: CC(C)n1ccc(S(=O)(=O)NC(=O)Nc2c3c(cc4c2CCC4)CCC3)n1.[Na] [Example 3, N-((1,2,3,5,6,7-hexahydro-s-indacen-4-yl)carbamoyl)-1-isopropyl-1H-pyrazole-3-sulfonamide monosodium anhydrate]
- polymorphic form stability on storage at elevated humidity (XRPD) ([4]; 1 week at 25° C. and 97% relative humidity): converts to the monosodium monohydrate (Form 1)
- polymorphic form stability on storage at elevated temperature (XRPD) ([4]; 1 week at 40° C. and 75% relative humidity): stable at elevated temperature
